In the METLIN SMRT retention time set (Domingo-Almenara et al. 2019):

Test: gradient 5% acetonitrile 3 min, to 50% in 2 min, to 85% in 15 min, held 3 min, 100 µL/min
Details: column: Zorbax Extend-C18 2.1 x 50 mm; eluents: water / acetonitrile, 0.1% formic acid
How it was run: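 Retention times come from adduct peaks that were picked computationally and then checked by hand. The standards, pure and pooled in mixtures of ~100 molecules, were run on a Zorbax Extend-C18 column (2.1 × 50 mm, 1.8 μm) at 100 μL/min with water and acetonitrile, each with 0.1% formic acid. Detection was by quadrupole time-of-flight mass spectrometry in positive and negative ionization mode, with a dead volume of 40 μL and a dwell volume of 900 μL.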

| Compound | RP-LC retention time [s] |
| --- | --- |
| COc1ccc(OC)c(NC(=O)c2ccc(-n3cnc(NC(=O)C4CC4)c3)cc2)c1 | 752 |
| CN(CCc1noc(-c2ccc(Cl)cc2)n1)C(=O)NCc1ccccc1 | 932 |
| COc1cccc(CNS(=O)(=O)c2ccc3c(c2)C(=O)N(C)c2ncccc2O3)c1 | 933 |
| CCCN(CCC)Cc1ccc(CNC(=O)C2CCCN(c3nnc(N4CCCC4=O)s3)C2)o1 (configuration not stated) | 614 |
| COC(=O)c1ccccc1Nc1c(-c2ccc(Cl)cc2)nc2cnccn12 | 1130 |
| COCC(=O)NC1CCC12CCN(Cc1ccc(C)o1)CC2 (configuration not stated) | 583 |
| CCn1ccc(C(=O)NCc2c(-c3ccccc3)nc3sc(C)nn23)n1 | 743 |
| O=C(NCc1ccccc1)C1CCCN(c2nc3ccsc3c(=O)n2Cc2ccc(F)cc2)C1 (configuration not stated) | 943 |
| O=C(O)c1ccccc1C(=O)Nc1cccc([N+](=O)[O-])c1 | 776 |
| O=C(Nc1ccc(OC(F)(F)F)cc1)C1CCN(C(=O)C2Sc3ccccc3NC2=O)CC1 (configuration not stated) | 893 |
| COCCOc1ccc2c(n1)CCN(C(=O)NC1CCCCC1)C2 | 760 |
| COC(=O)[C@H](Cc1ccc([N+](=O)[O-])cc1)NC(=O)c1cccc2ccccc12 | 909 |
| CCOc1ccc(-c2ccc(SCC)nn2)cc1 | 941 |
| CCCn1c(=O)sc2cc(S(=O)(=O)N3CCC(C(=O)NCc4ccc(C)cc4)CC3)ccc21 | 969 |
| COc1ccc(-c2nc3cc(C)ccn3c2NC(=O)c2cccc(C(F)(F)F)c2)cc1OC | 729 |
| CCS(=O)(=O)N1CCC(c2noc(COCCOC)n2)CC1 | 681 |
| CC(NC(=O)c1ccc(C#N)cc1)C(=O)N1CCCc2ccccc21 (configuration not stated) | 818 |
| Cc1ccc(-c2cn(CC(=O)N3CCN(c4ccc(C)cc4)CC3)c(=O)o2)cc1 | 975 |

The remaining lines, values ahead:

| RP-LC retention time [s] | Compound |
| --- | --- |
| 761 | O=C(Cn1c(-c2cccs2)cc2cc(F)ccc21)N1CCN(c2ccccn2)CC1 |
| 786 | Cc1cc(C(=O)N2CCCCC2)c2c(=O)n(CC(=O)NC3CCCCC3)c(=O)n(C)c2n1 |
| 852 | O=C(NCCC1CCN(S(=O)(=O)c2ccc(F)cc2)CC1)NCc1ccc(F)cc1 |
| 761 | Cc1noc(-c2nn(C)c3c2CN(C(=O)NCc2ccccc2)CC3)n1 |
| 799 | O=C(C1CC1)N1CCc2sc(S(=O)(=O)Nc3ccc(F)cc3)cc2C1 |
| 1040 | CCc1ccc(CNC(=O)C2CCN(c3ncccc3S(=O)(=O)N3CCCCC3)CC2)cc1 |
| 891 | CCn1ccc(C(=O)Nc2cccc(OCc3nnc(-c4ccc(OC)cc4)o3)c2)n1 |
| 1060 | O=C1COc2cc(Cl)ccc2N1Cc1nc(-c2ccccc2)no1 |
| 849 | O=C(Nc1ccc(Br)cc1)NC1CCN(c2ccccc2)C1=O (configuration not stated) |
| 626 | CN1C(=O)C(CC(=O)N2CCCC2)Sc2ncccc21 (configuration not stated) |
| 1320 | CCCN1C(=O)COc2ccc(-c3noc(-c4ccc(OC)cc4C)n3)cc21 |
| 941 | O=C(Nc1cccc(-c2noc(C3CC3)n2)c1)c1n[nH]c2c1CCCC2 |
| 774 | CCN1c2ccc(C)cc2C(=O)NC12CCN(C(=O)c1ccc(OC)cc1OC)CC2 |
| 768 | CC12CCC(C(=O)NCc3ccccc3)(OC1=O)C2(C)C (configuration not stated) |
| 740 | COc1ccc(C(=O)NC2CCN(c3cc(-c4ccc(F)cc4)[nH]n3)C2)c(OC)c1 (configuration not stated) |
| 776 | Cc1cc(=O)n2c(-c3ccc(NC(=O)Nc4ccc(F)c(F)c4)cc3)csc2n1 |
| 797 | Cc1cc(C(F)(F)F)nn1CC(=O)NCC1Cn2cccc2C(=O)N1CC(C)C (configuration not stated) |
| 547 | Cc1nnc(-c2ccncc2)o1 |
| 715 | CC1=C(C(=O)N2CCOCC2)C(c2cc(Br)ccc2F)C2=C(CC(C)(C)CC2=O)N1 (configuration not stated) |
